Data: patent publication US5541175A, “Cephalosporin antibiotics” (Lucky, Ltd., priority 1993, dated 1996)
Values after ≈ are worked out from the molar mass of the structure shown.

Columns and labels:
[1] = system: Salmonella typhimurium 14028A; assay: Minimum inhibitory concentration (agar 2-fold dilution); format: cell-based; conditions: Salmonella enterica; S. typhimurium 14028A; Muller-Hinton agar, 37° C., 20 hours; read-out: Minimum Inhibitory Concentration
Protocol: (§1) The minimum inhibitory concentration was determined by diluting the test compounds according to 2-fold dilution, suspending them in Muller-Hinton agar medium, inoculating 2 μl of the suspension containing the test strains having 10^7 CFU (Colony Forming Unit) per 1 ml into the medium and then culturing the test strains at 37° C. for 20 hours.

Escherichia coli 10536 = assay: as above; format: cell-based; conditions: Escherichia coli; E. coli 10536; Muller-Hinton agar, 37° C., 20 hours; read-out: Minimum Inhibitory Concentration
Protocol: as §1

[2] = system: Staphylococcus aureus 241; assay: as above; format: cell-based; conditions: Staphylococcus aureus; S. aureus 241; Muller-Hinton agar, 37° C., 20 hours; read-out: Minimum Inhibitory Concentration
Protocol: as §1

[3] = system: Pseudomonas aeruginosa 6065; assay: as above; format: cell-based; conditions: Pseudomonas aeruginosa; P. aeruginosa 6065; Muller-Hinton agar, 37° C., 20 hours; read-out: Minimum Inhibitory Concentration
Protocol: as §1

Enterobacter cloacae P99 = assay: as above; format: cell-based; conditions: P99, 20 h, read-out: Minimum Inhibitory Concentration
Protocol: as §1

[4] = system: Klebsiella aerogenes K1 + 1082E; assay: as above; format: cell-based; conditions: 20 h, read-out: Minimum Inhibitory Concentration
Protocol: as §1

[5] = system: Serratia marcescens 1826E; assay: as above; format: cell-based; conditions: S. marcescens 1826E, Muller-Hinton agar, 37° C., 20 hours, read-out: Minimum Inhibitory Concentration
Protocol: as §1

[6] = system: Streptococcus faecalis 29212A; assay: as above; format: cell-based; conditions: Enterococcus faecalis; S. faecalis 29212A; Muller-Hinton agar, 37° C., 20 hours; read-out: Minimum Inhibitory Concentration
Protocol: as §1

Staphylococcus aureus 77 = assay: as above; format: cell-based; conditions: Staphylococcus aureus; S. aureus 77; Muller-Hinton agar, 37° C., 20 hours; read-out: Minimum Inhibitory Concentration
Protocol: as §1

[7] = system: Escherichia coli TEM7 3457E; assay: as above; format: cell-based; conditions: TEM73457E, 20 h, read-out: Minimum Inhibitory Concentration
Protocol: as §1

[8] = system: Pseudomonas aeruginosa 10145; assay: as above; format: cell-based; conditions: Pseudomonas aeruginosa; P. aeruginosa 10145; Muller-Hinton agar, 37° C., 20 hours; read-out: Minimum Inhibitory Concentration
Protocol: as §1

[9] = system: Staphylococcus aureus 6538P; assay: as above; format: cell-based; conditions: S. aureus 6538P, Muller-Hinton agar, 37° C., 20 hours, read-out: Minimum Inhibitory Concentration
Protocol: as §1

Escherichia coli 851E = assay: as above; format: cell-based; conditions: E. coli 851E, Muller-Hinton agar, 37° C., 20 hours
Protocol: as §1

Escherichia coli 3190Y = assay: as above; format: cell-based; conditions: E. coli 3190Y, Muller-Hinton agar, 37° C., 20 hours, read-out: Minimum Inhibitory Concentration
Protocol: as §1

[10] = system: Acinetobacter calcoaceticus 15473A; assay: as above; format: cell-based; conditions: A. calcoaceticus 15473A, Muller-Hinton agar, 37° C., 20 hours, read-out: Minimum Inhibitory Concentration
Protocol: as §1

[11] = system: Enterobacter cloacae IND + VE 1194E; assay: as above; format: cell-based; conditions: E. cloacae IND + VE 1194E, Muller-Hinton agar, 37° C., 20 hours, read-out: Minimum Inhibitory Concentration
Protocol: as §1

[12] = system: Escherichia coli TEM5 3739E; assay: as above; format: cell-based; conditions: TEM53739E, 20 h, read-out: Minimum Inhibitory Concentration
Protocol: as §1

[13] = system: Staphylococcus aureus epidermidis 887E; assay: as above; format: cell-based; conditions: S. aureus epidermidis 887E, Muller-Hinton agar, 37° C., 20 hours, read-out: Minimum Inhibitory Concentration
Protocol: as §1

[14] = system: Citrobacter diversus 2046E; assay: as above; format: cell-based; conditions: Citrobacter koseri; C. diversus 2046E; Muller-Hinton agar, 37° C., 20 hours; read-out: Minimum Inhibitory Concentration
Protocol: as §1

Proteus vulgaris 6059A = assay: as above; format: cell-based; conditions: P. vulgaris 6059A, Muller-Hinton agar, 37° C., 20 hours, read-out: Minimum Inhibitory Concentration
Protocol: as §1

[15] = system: Klebsiella aerogenes SHV-1 1976E; assay: as above; format: cell-based; conditions: SHV11976E, K. aerogenes SHV-1 1976E, Muller-Hinton agar, 37° C., 20 hours
Protocol: as §1

[16] = system: Escherichia coli TEM1 1193E; assay: as above; format: cell-based; conditions: TEM11193E, 20 h, read-out: Minimum Inhibitory Concentration
Protocol: as §1

[17] = system: Pseudomonas aeruginosa 1912E; assay: as above; format: cell-based; conditions: P. aeruginosa 1912E, Muller-Hinton agar, 37° C., 20 hours, read-out: Minimum Inhibitory Concentration
Protocol: as §1

[18] = system: Escherichia coli TEM9 2639E; assay: as above; format: cell-based; conditions: TEM92639E, 20 h, read-out: Minimum Inhibitory Concentration
Protocol: as §1

[19] = system: Escherichia coli TEM3 3455E; assay: as above; format: cell-based; conditions: TEM33455E, 20 h, read-out: Minimum Inhibitory Concentration
Protocol: as §1

[20] = system: Staphylococcus aureus giorgio; assay: as above; format: cell-based; conditions: S. aureus giorgio, Muller-Hinton agar, 37° C., 20 hours, read-out: Minimum Inhibitory Concentration
Protocol: as §1

[21] = Pharmacokinetic properties in rats (blood concentration by agar well biological assay); parameters: species or system SD rats (male); conditions: rat, in vivo, iv, 20 mg/kg
Protocol: The pharmacokinetic properties of the compound of the present invention were determined using SD rats (.male.) weighing 230±10 g. Specifically,the test samples were injected into femoral vein in an amount of 20 mg/kg to 4 to 5 test animals. Blood was taken from femoral vein 1, 2.5, 5, 10, 20, 40, 60, 120 and 180 minutes after administration and then subjected to a biological assay using agar well method to measure the blood concentration.

Compound `Nc1nc(/C(=N/O[C@H](C(=O)O)c2ccc(O)c(O)c2)C(=O)N[C@@H]2C(=O)N3C(C(=O)[O-])=C(/C=C/C[n+]4cnc(N)c(N)c4N)CS[C@H]23)cs1` [Compound I-5a, 7-[(Z)-2-(2-aminothiazol-4-yl)-2-(α-carboxy-3,4-dihydroxybenzyloxyimino)acetamido]-3-[(E)-3-(4,5,6-triaminopyrimidinium-1-yl)-1-propen-1-yl]-3-cephem-4-carboxylate] has an MIC [1] of 0.03 µg/mL (≈ 0.0429 µM), an MIC (Escherichia coli 10536) of 0.016 µg/mL (≈ 0.0229 µM) and an MIC [2] of 128 µg/mL (≈ 183 µM). It also gave an MIC [3] of 4 µg/mL (≈ 5.72 µM), an MIC (Enterobacter cloacae P99) of 8 µg/mL (≈ 11.4 µM) and an MIC [4] of 0.063 µg/mL (≈ 0.0902 µM). The MIC [5] was 0.5 µg/mL (≈ 0.716 µM), the MIC [6] was 4 µg/mL (≈ 5.72 µM) and the MIC (Staphylococcus aureus 77) was 2 µg/mL (≈ 2.86 µM). It also gave an MIC [7] of 0.031 µg/mL (≈ 0.0444 µM), an MIC [8] of 0.25 µg/mL (≈ 0.358 µM) and an MIC [9] of 0.5 µg/mL (≈ 0.716 µM). For the same compound, the MIC (Escherichia coli 851E) was 0.063 µg/mL (≈ 0.0902 µM), the MIC (Escherichia coli 3190Y) was 0.063 µg/mL (≈ 0.0902 µM) and the MIC [10] was 0.5 µg/mL (≈ 0.716 µM). For the same compound, the MIC [11] was 1 µg/mL, the MIC [12] was 0.5 µg/mL (≈ 0.716 µM) and the MIC [13] was 64 µg/mL (≈ 91.6 µM). It also gave an MIC [14] of 0.13 µg/mL (≈ 0.186 µM), an MIC (Proteus vulgaris 6059A) of 0.063 µg/mL (≈ 0.0902 µM) and an MIC [15] of 0.5 µg/mL (≈ 0.716 µM). For the same compound, the MIC [16] was 0.063 µg/mL (≈ 0.0902 µM), the MIC [17] was 0.5 µg/mL (≈ 0.716 µM) and the MIC [18] was 1 µg/mL (≈ 1.43 µM). For the same compound, the MIC [19] was 0.063 µg/mL (≈ 0.0902 µM), the MIC [20] was 0.25 µg/mL (≈ 0.358 µM) and the AUC [21] was 49600 ng·h/mL. For the same compound, the half-life [21] was 41 min.
